Experimental data from publication PMC6321124, “Hydrophilic Linear Peptide with Histidine and Lysine Residues as a Key Factor Affecting Antifungal Activity” (International Journal of Molecular Sciences, 2018).
Values after ≈ are worked out from the molar mass of the structure shown.

Assays:
C. albicans cells [1] = assay: Intracellular ROS (DCFH-DA, flow cytometry); format: cell-based; details: peptides at MICs or 10 mM H2O2 for 6 h, DCFH-DA 20 min
Description: DCF fluorescence was measured using 5000 events/sample following excitation with a 488-nm wavelength laser and reading through a 525/40 biopass filter using a CytoFLEX flow cytometer.

[2] = tested on: Tricophyton rubrum (KCTC 6345); details: KCTC 6345, 48 h, pH 6
F. solani (KCTC 6326) = details: KCTC 6326, 48 h, pH 6
[3] = tested on: Trichoderma viride (KCTC 16992); details: KCTC 16992, 48 h, pH 6
[4] = tested on: F. graminearum (KCTC 16656); details: KCTC 16656, 48 h, pH 6
[5] = tested on: C. albicans (CCARM 14007, amphotericin B-resistant strain); details: CCARM 14007, 48 h, pH 6
C. krusei (CCARM 14017) = details: CCARM 14017, 48 h, pH 6
[6] = tested on: F. moniliforme (KCTC 6149); details: KCTC 6149, 48 h, pH 6
[7] = tested on: Aspergillus flavus (KCTC 6905); details: KCTC 6905, 48 h, pH 6
[8] = tested on: F. oxysporum (KCTC 16909); details: KCTC 16909, 48 h, pH 6
[9] = Calcein leakage, artificial mammalian model membrane; details: PC/Ch/SM (1:1:1) LUVs, 10 μM lipids
Description: The dried lipids were prehydrated with dye buffer solution (80 mM calcein, 10 mM MES, 50 mM NaCl, pH 6.2), vortexed for 1 min, and incubated for 30 min at 50 °C. The suspension was freeze-thawed in liquid nitrogen for nine cycles to generate large unilamellar vesicles (LUVs) and extruded 30 times through polycarbonate filters (two stacked 0.2-μm pore-size filters) using an Avanti Mini-Extruder (Avanti Polar Lipids Inc., Alabaster, AL, USA). Calcein-entrapped vesicles were separated from free calcein by gel filtration chromatography on a Sephadex G-50 column. Entrapped LUVs in suspensions containing 10 μM lipids were incubated with various concentrations of the peptide. The fluorescence of the released calcein was assessed with a microtiter SpectraMax M5 reader at an excitation wavelength of 480 nm and an emission wavelength of 520 nm. Complete (100%) release was achieved via the addition of Triton X-100 to a final concentration of 0.1% (v/v). The apparent percentage of calcein release was calculated in accordance with the following equation: Release (%) = 100 × (F − F0)/(Ft − F0) (2) where F and Ft represent the fluorescence intensity after the addition of the peptides and Triton X-100, respectively, and F0 represents the fluorescence of the intact vesicles.

HaCaT cells = assay: Cytotoxicity (MTT assay); format: cell-based; details: at 3.13 µM, 24 h
[10] = tested on: C. albicans (CCARM 14004, fluconazole-resistant strain); details: CCARM 14004, 48 h, pH 6
[11] = tested on: C. gloeosporioides (KCTC 6169); details: KCTC 6169, 48 h, pH 6
[12] = tested on: C. albicans (CCARM 14020, fluconazole-resistant strain); details: CCARM 14020, 48 h, pH 6
C. albicans (KCTC 7270) = details: KCTC 7270, 48 h, pH 6
[13] = tested on: Trichoderma virens (KCTC 16924); details: KCTC 16924, 48 h, pH 6
[14] = tested on: C. parapsilosis (CCARM 14016); details: CCARM 14016, 48 h, pH 6
[15] = tested on: C. albicans (CCARM 14001, fluconazole-resistant strain); details: CCARM 14001, 48 h, pH 6
[16] = tested on: drug-resistant C. albicans strains (CCARM 14001, 14004, 14007, and 14020); format: cell-based; details: at 256 µM; CCARM 14001, 14004, 14007, 14020; data not shown
C. albicans = details: peptides at MICs for 6 h, measured at 550 nm
C. albicans cells [17] = assay: SYTOX Green uptake (flow cytometry); format: cell-based; details: peptides at MICs for 30 min, 0.5 μM SYTOX Green pre-incubated 15 min
Description: C. albicans cells were pre-incubated with 0.5 μM SYTOX Green for 15 min in the dark, incubated with the indicated peptides at MICs for 30 min, and then analyzed using a CytoFLEX flow cytometer (Beckman Coulter Inc., Brea, CA, USA).

For `OO` [H2O2], the “intracellular ROS generation” value (C. albicans cells [1]) was “high levels of ROS generation”.

In the case of `CC[C@H](C)[C@H](NC(=O)CN)C(=O)NCC(=O)N[C@@H](C)C(=O)N[C@H](C(=O)N[C@@H](CC(C)C)C(=O)N[C@@H](CCCCN)C(=O)N[C@H](C(=O)N[C@@H](CC(C)C)C(=O)N[C@H](C(=O)N[C@H](C(=O)NCC(=O)N[C@@H](CC(C)C)C(=O)N1CCC[C@H]1C(=O)N[C@@H](C)C(=O)N[C@@H](CC(C)C)C(=O)N[C@H](C(=O)N[C@@H](CO)C(=O)N[C@@H](Cc1c[nH]c2ccccc12)C(=O)N[C@H](C(=O)N[C@@H](CCCCN)C(=O)N[C@@H](CCCNC(=N)N)C(=O)N[C@@H](CCCCN)C(=O)N[C@@H](CCCNC(=N)N)C(=O)N[C@@H](CCC(N)=O)C(=O)N[C@@H](CCC(N)=O)C(N)=O)[C@@H](C)CC)[C@@H](C)CC)[C@@H](C)O)[C@@H](C)O)C(C)C)C(C)C` [Melittin, melittin, reference compound], the MIC [2] is reported as 8 µM (≈ 22.8 µg/mL), the MIC (F. solani (KCTC 6326)) is reported as 8 µM (≈ 22.8 µg/mL) and the MIC [3] is reported as 4 µM (≈ 11.4 µg/mL). It also gave an MIC [4] of 8 µM (≈ 22.8 µg/mL), an MIC [5] of 8 µM (≈ 22.8 µg/mL) and an MIC (C. krusei (CCARM 14017)) of 8 µM (≈ 22.8 µg/mL). It also gave an MIC [6] of 8 µM (≈ 22.8 µg/mL), an MIC [7] of 8 µM (≈ 22.8 µg/mL) and an MIC [8] of 8 µM (≈ 22.8 µg/mL). For the same compound, the “calcein leakage from mammalian artificial liposomes (in words)” value [9] was “concentration-dependent calcein leakage”, the cell death (HaCaT cells) was 100% and the MIC [10] was 8 µM (≈ 22.8 µg/mL). It also gave an MIC [11] of 16 µM (≈ 45.5 µg/mL), an MIC [12] of 8 µM (≈ 22.8 µg/mL) and an MIC (C. albicans (KCTC 7270)) of 8 µM (≈ 22.8 µg/mL). For the same compound, the MIC [13] was 32 µM (≈ 91.1 µg/mL), the MIC [14] was 8 µM (≈ 22.8 µg/mL) and the MIC [15] was 8 µM (≈ 22.8 µg/mL).

In the case of `OC(Cn1cncn1)(Cn1cncn1)c1ccc(F)cc1F` [fluconazole], the “antifungal activity against drug-resistant C. albicans strains” value [16] is reported as “inactive”.

For histatin 5, the “relative cytochrome c levels in the cytosol” value (C. albicans) was “only minor alterations” and the “SYTOX Green uptake (membrane permeabilization)” value (C. albicans cells [17]) was “did not induce membrane damage”.
